Results on 17 compounds are retold here after PubChem BioAssay (NCI).

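Method: 48-hour compound exposure of cells in 96-well plates, five concentrations, linear interpolation of endpoints. GI50 is the concentration that inhibits growth by half. Definition used: TGI = concentration required for complete inhibition of growth.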 Bounds are passed on as bounds.

Holding throughout (assay): inhibition of tumour cell growth, NCI panel, 48 h
For assay [1], the system named is A498 renal.
In assay [2] the test system is HCC-2998 colon.
For assay [3], the system named is HS 578T breast.
Assay [4] has as its system K-562 leukemia.
Assay [5] relates to OVCAR-3 ovarian.
Assay [6] relates to OVCAR-8 ovarian.
Assay [7] concerns RXF 393 renal.
Assay [8] concerns SK-MEL-2 melanoma.
In assay [9] the test system is SNB-75 CNS.
Assay [10] concerns TK-10 renal.

On to `Cc1c2cc(Cl)c3ccccc3c2c[n+]2ccccc12`, for which the GI50 in [1] was above 49.4 µM; in assay [2] it was 4.22 µM; in assay [3] it was 1.12 µM; in assay [4] it was 2.98 µM; in assay [5] it was 1.62 µM; in [6], 2.42 µM. Also, the GI50 in [7] was 12.3 µM; in assay [8] it was 3.58 µM; in assay [9], 2.31 µM; in assay [10] it was 23.1 µM. Moreover, the TGI in assay [1] was above 100 µM; in assay [2], 17.8 µM; in assay [3], 11.9 µM; in [4], 27.2 µM; in [5] it was 5.41 µM; in [6] it was 26.7 µM. The TGI in assay [7] is above 65.5 µM; in assay [8], 11.5 µM; in assay [9] it was 12.9 µM; in assay [10], above 100 µM.
As to `COC(=O)COc1ccc(/C=C2/N=C(c3ccccc3)N(c3c(C)n(C)n(-c4ccccc4)c3=O)C2=O)cc1`, the GI50 is 26.1 µM in assay [1]; 16.9 µM in [2]; 24.7 µM in assay [3]; 30.4 µM in [4]; 16.6 µM in assay [5]; 18.8 µM in [6]. Also, the GI50 in [7] was 19.4 µM; in assay [8], 19.1 µM; in [9], 16.7 µM; in assay [10], 18.5 µM. In addition, the TGI was 44.1 µM in [1]; 33.4 µM in [2]; 60.5 µM in assay [3]; above 100 µM in [4]; 30.7 µM in assay [5]; 33.7 µM in [6]. The TGI in assay [7] was 36.5 µM; in [8], 38 µM; in assay [9], 30.7 µM; in [10] it was 34.1 µM.
`O=P1(S)OC[C@H]2O[C@@H]3[C@H](F)[C@@H]2OP(O)(=S)OC[C@H]2O[C@H]([C@H](F)[C@@H]2O1)n1cnc2c(ncnc21)NC/C=C/CNc1ncnc2c1ncn23` (stereo not given in full): the GI50 in assay [1] was 0.543 µM; in assay [2], above 100 µM; in assay [3], above 100 µM; in [4] it was above 100 µM; in [5] it was above 100 µM; in assay [6] it was above 100 µM. Also, the GI50 in [7] is 0.764 µM; in assay [8], above 100 µM; in assay [9], above 79.9 µM; in assay [10], above 100 µM. The TGI in assay [1] was 11.5 µM; in assay [2], above 100 µM; in assay [3], above 100 µM; in [4], above 100 µM; in assay [5] it was above 100 µM; in [6], above 100 µM. The TGI in assay [7], in assay [8], in assay [9] and in assay [10] was above 100 µM each time.
Turning to `COc1cc2c(cc1O)CC1c3c(cc(O)c(OC)c3-2)CCN1C` (stereo not given), the TGI in assay [1], in assay [2], in assay [3], in assay [4], in assay [5] and in assay [6] was above 100 µM each time. In addition, the TGI in [7], in assay [8], in [9] and in assay [10] was above 100 µM each time.
With `O=C(c1ccccc1)c1c(NCC(O)CN2CCOCC2)n(Cc2ccccc2)c(=O)n(Cc2ccccc2)c1=O` (stereo not given), the GI50 in assay [1] is 27.5 µM; in assay [2], 1.26 µM; in assay [3], 55 µM; in [4], 42.2 µM; in assay [5], 27.6 µM; in assay [6], 48.9 µM. Moreover, the GI50 was 25.3 µM in [7], above 66.4 µM in [8], above 36.8 µM in assay [9] and 30.2 µM in assay [10]. Also, the TGI was above 88.8 µM in assay [1]; 4.86 µM in [2]; above 100 µM in assay [3]; above 100 µM in assay [4]; above 77.3 µM in assay [5]; above 100 µM in [6]. The TGI in [7] is above 94 µM; in assay [8] it was above 100 µM; in assay [9], above 81.7 µM; in assay [10], above 100 µM.
In the case of `COc1ccc(-c2nc(-c3nc4ccc(F)cc4[nH]3)c3ccccn23)cc1`, the GI50 in assay [1] was 3.83 µM; in [2], 6.59 µM; in [3], 8.54 µM; in assay [4], 14 µM; in assay [5], 6.14 µM; in assay [6] it was 3.76 µM. Moreover, the GI50 in [7] was 6.05 µM; in assay [8], 10.1 µM; in [9], 3.4 µM; in assay [10] it was 16.1 µM. Moreover, the TGI in [1] is 31.8 µM; in assay [2], above 100 µM; in assay [3], above 100 µM; in assay [4], above 100 µM; in assay [5] it was 27.1 µM; in assay [6], 23.4 µM. For the same compound, the TGI in assay [7] amounted to 45.3 µM; in assay [8], 54.8 µM; in assay [9] it was 12.4 µM; in assay [10], 57.9 µM.
Turning to `CC(C)Cc1ccc(C(C)CC2=CCC(CN(C)C)C2=O)cc1` (stereo not given), the TGI worked out at 33.4 µM in [1]; 17 µM in [2]; 40.6 µM in assay [3]; 4.04 µM in [4]; 24.9 µM in [5]; 20.3 µM in assay [6]. The TGI was 14.3 µM in assay [7], 26.9 µM in assay [8], 29.5 µM in assay [9] and above 22.7 µM in [10].
In the case of `O=C(Oc1ccc(CO[N+](=O)[O-])cc1)c1ccccc1`, the GI50 is 1.07 µM in assay [1]; 0.201 µM in [2]; 0.0911 µM in [3]; 0.0708 µM in [4]; 0.153 µM in assay [5]; 0.153 µM in assay [6]. Further, the GI50 in [7] was 0.165 µM; in assay [8], 0.162 µM; in assay [9] it was 0.158 µM; in [10], 0.173 µM. Also, the TGI is 2.26 µM in [1]; 0.447 µM in assay [2]; 0.422 µM in assay [3]; 0.325 µM in assay [4]; 0.295 µM in assay [5]; 0.288 µM in assay [6]. For the same compound, the TGI in assay [7] amounted to 0.319 µM; in assay [8], 0.322 µM; in assay [9], 0.333 µM; in assay [10] it was 0.334 µM.
Regarding `Cn1cc(C2=C(c3cn(C)c4ccc(Cl)cc34)C(=O)NC2=O)c2ccccc21`, the GI50 in [1] was 1.75 µM; in [2], 6.76 µM; in assay [3] it was 2.11 µM; in [4], 1.35 µM; in assay [5] it was 1.44 µM; in assay [6], 5.16 µM. Besides, the GI50 in assay [7] was 3.19 µM; in assay [8] it was 1.68 µM; in assay [9], 0.709 µM; in [10], 5.55 µM. The TGI in [1] is 7.09 µM; in [2], above 23.9 µM; in [3] it was above 23.9 µM; in assay [4], above 25 µM; in assay [5], 6.88 µM; in assay [6], above 21.6 µM. For the same compound, the TGI was 7.76 µM in [7], 6.65 µM in assay [8], above 17.3 µM in assay [9] and 23 µM in [10].
Consider `Cc1nc2ccc(NC(=O)CCNC(=O)CCCc3ccc(CC(C(=O)O)C(=O)O)cc3)cc2s1`, for which the GI50 in assay [1], in assay [2], in assay [3], in [4], in assay [5] and in assay [6] was above 100 µM throughout. Besides, the GI50 in assay [7], in assay [8], in assay [9] and in [10] was above 100 µM throughout. The TGI in assay [1], in [2], in [3], in [4], in assay [5] and in [6] was above 100 µM throughout. The TGI in [7], in assay [8], in assay [9] and in assay [10] was above 100 µM throughout.
Take `CC1=Nc2ccccc2/C1=C\c1c(C)[nH]c2ccccc12`: the TGI in assay [1] was 38 µM; in assay [2] it was 30.1 µM; in assay [3] it was 47.2 µM; in [4], above 100 µM; in [5], 34.8 µM; in assay [6] it was 27 µM. The TGI in assay [7] amounted to 33.2 µM; in assay [8], 47.3 µM; in assay [9], 71.5 µM; in [10] it was 32.2 µM.
In the case of `CCCCCC[C@H](C)Nc1nc2ccccc2c2occc12`, the GI50 is 11.3 µM in assay [1]; 1.4 µM in assay [2]; 12.8 µM in assay [3]; 16.3 µM in assay [4]; 6.27 µM in assay [5]; 10.8 µM in assay [6]. The GI50 in assay [7] is 12.6 µM; in assay [8] it was 14.8 µM; in [9], 14.8 µM; in assay [10], 6.46 µM. Also, the TGI is 25.8 µM in assay [1]; 8.94 µM in assay [2]; 37.7 µM in [3]; above 100 µM in assay [4]; 24.3 µM in assay [5]; 26.3 µM in assay [6]. For the same compound, the TGI in [7] was determined as 30.6 µM; in [8], 32.6 µM; in [9], 30.5 µM; in assay [10], 20.9 µM.
On to `COc1cc(NC(=O)CCSc2nc3ccc(C)cc3c(=O)n2Cc2ccccc2)cc(OC)c1OC`, for which the GI50 in [1] was 15.8 µM; in [2] it was above 100 µM; in [3] it was 2.18 µM; in assay [4], above 100 µM; in assay [5], 5.05 µM; in [6], 5.01 µM. Moreover, the GI50 in [7] is 3.48 µM; in [8] it was 4.4 µM; in assay [9], 1.9 µM; in assay [10] it was 7.43 µM. The TGI in assay [1] is 60 µM; in assay [2], above 100 µM; in assay [3] it was 6.74 µM; in assay [4], above 100 µM; in [5], above 100 µM; in assay [6], above 100 µM. The TGI in [7] was 16.6 µM; in [8], 27.5 µM; in [9], 4.78 µM; in assay [10] it was 28.4 µM.
As for `COC(=O)C1C(O)C(C)C(O)C(C)C=C(C)C2=C3C(=C(C)C(=O)c4c(O)c(c(C)c(OC(C)=O)c43)NC(=O)C(C)=C/C=C\C(C)C(O)C(C)C1O)OCO2` (stereo not given), the TGI in [1] was 99.4 µM; in assay [2] it was above 100 µM; in assay [3], above 100 µM; in assay [4] it was 47.5 µM; in assay [5], 53 µM; in assay [6], above 100 µM. Further, the TGI in assay [7] was 89.8 µM; in [8], 74.2 µM; in assay [9], 92.9 µM; in assay [10], above 100 µM.
As to `COc1cc(C)c(C2NC(=O)c3ccccc3N2)cc1C` (stereo not given), the TGI in [1] was 4.77 µM; in assay [2] it was 25.9 µM; in assay [3], 0.908 µM; in assay [4], above 52.2 µM; in assay [5], 0.518 µM; in [6], above 66.5 µM. The TGI in assay [7] is 8.61 µM; in assay [8], 0.924 µM; in [9], 0.496 µM; in assay [10], above 100 µM.
For `C=C1CCC2(C#N)[C@H]3[C@H](CC[C@@H]2C)[C@@H](C)C[C@@H](CC(C)(C)NC(=O)CN2CCC2=O)[C@H]13` (stereo not given in full), the GI50 is 9.03 µM in assay [1]; 7 µM in assay [2]; 4.79 µM in [3]; 3.69 µM in [4]; 3.72 µM in assay [5]; 4.94 µM in assay [6]. For the same compound, the GI50 in assay [7] was 11.5 µM; in assay [8], 15.8 µM; in assay [9], 1.57 µM; in assay [10] it was 16.2 µM. The TGI turned out to be 53.1 µM in assay [1]; 22.8 µM in assay [2]; 30.7 µM in assay [3]; 53.1 µM in assay [4]; 15 µM in assay [5]; 38.1 µM in [6]. In addition, the TGI in [7] is 28 µM; in assay [8], 35.6 µM; in [9], 10.2 µM; in assay [10] it was 43.3 µM.
For the compound `Cc1c2c(c(C)c3c4c(oc13)CCCC4)C=NCC2`, the TGI amounted to 31.9 µM in assay [1]; 36.1 µM in assay [2]; 53 µM in assay [3]; 37.4 µM in assay [4]; 31.5 µM in assay [5]; 23.1 µM in [6]. For the same compound, the TGI was found to be 15.9 µM in [7], 31.2 µM in [8], 32.4 µM in [9] and 25.4 µM in [10].
